Laboratory results published in US20070015138A1, “Methods for identifying agents and conditions that modulate neurogenesis” (BrainCells, Inc., priority 2005, published 2007).
“Also recorded” adds a separate entry of the source. Where two headings read alike, the source gives them in different places.

How the values were obtained:
[1] = system: cultured human neural stem cells (hNSCs); assay: Automated differentiation assay using monolayer cultures, neuronal lineage (Tuj1 staining per Hoechst-counted cell); assay type: cell-based; conditions: for concentration at which the agent by itself affected neuronal differentiation / effect on differentiation along a neuronal lineage, agent by itself: no constitutive factor; for effect on differentiation along a neuronal lineage, agent by itself: normalized to neuronal positive control; for effect on neuronal differentiation, AMPA combined with M6: AMPA about 3 nM to about 10 μM plus 10 μM M6 (cyclo-(Pro-Gly)), FIG. 5; for EC50: Homo sapiens, Neural stem cell
Protocol: (§1) Cells were cultured in mitogen free test media or exposed to differentiating agents as described herein immediately upon plating of cells. Stable, differentiation-compatible culture may be used with automated equipment (like Perkin Elmer Evolution P3, Perkin Elmer Multiprobe II Plus and Bio-Tek ELx405 Select CW as non-limiting examples) to replace 50% of media with newly prepared media and differentiation agent between 3 to 4 days after commencement of the experiment.
(§2) Measurement of the resulting NSC differentiation may be performed by fixation and staining as described herein and subsequent use of automated equipment (InCell Analyzer high throughput imaging system) to take multiple pictures per well, at multiple wavelengths. Quantification of neuronal differentiation was performed by measuring the amount of Tuj1 staining and dividing the number by the number of cells as determined through automated counting of Hoechst stained cell nuclei. Quantification of astocytic differentiation was performed by measuring the amount of GFAP staining and dividing the number by the number of cells as determined through automated counting of Hoechst stained cell nuclei. […] An agent's effect on astrocyte or oligodendrocyte differentiation can be determined in a similar manner using other cell type specific antibodies, examples of which include GFAP (astrocytes), NF-200 (neurons), and O1 and O4 (oligodendrocytes).

[2] = system: cultured human neural stem cells (hNSCs); assay: Automated differentiation assay using monolayer cultures, astrocyte lineage (GFAP staining per Hoechst-counted cell); assay type: cell-based; conditions: for effect on differentiation along an astrocyte lineage (astrogenesis), agent alone: normalized to astrocyte positive control
Protocol: as §1, §2

[3] = system: Human NSCs plated as monolayers
Protocol: Human NSCs maintained as neurospheres are plated as monolayers on laminin/poly-L-lysine coated plates and assayed for proliferation and/or differentiation, as described in Examples 3 and 4, except that the test media is modified to include one or more neurotransmitters at various concentrations to facilitate detection of neurogenesis modulating agents. […] Proliferation is measured as the mean cell intensity per microscopic field of view, with the mean cell intensity for control experiments subtracted. Data is plotted as a dose response curve of dopamine with and without 2 independent concentrations of 5-HTP.

[4] = system: human NSCs cultured as monolayers in 96-well plates; conditions: DMSO vehicle max 0.3%, FIG. 8
Protocol: Briefly, cells were cultured as described in Example 5 with the presence of histamine. The histamine was dissolved in DMSO as a vehicle, and cells were exposed to a maximum concentration of 0.3% vehicle. Cell number was determined by fixation and exposure of cells to Hoechst stain. Image acquisition was automated with the use of an InCell Analyzer 1000, and the number of cells determined by automated counting of stained nuclei. […] (see FIG. 8).
Toxic effects of agents can be determined in a similar manner. NSCs were exposed to BAY-60-7550 as described above and cell number was quantified.

[5] = system: human NSCs in monolayer culture; assay: Automated proliferation (growth or trophism) assay using monolayer cultures, test media with mitogens; assay type: cell-based; conditions: control conditions, across a range of concentrations; FIG. 1B
Protocol: Sterile, tissue culture treated, clear bottom 96-well plates (e.g., Costar 3712) are coated 10 μg/ml poly-L-lysine and 50 μg/ml mouse Laminin, as described in Example 2. 10-15 neurospheres in maintenance media (see, Example 2) are transferred (estimated at 100,000 cells/sphere) to an eppendorf tube and enzymatically dissociated as described in Example 2. Approximately 50,000 cells are plated per 100 μl/well. The cells are allowed to attach by incubating for approximately one hour, and 100 μl/well of test compounds are added. […] Compounds are prepared using Perkin-Elmer MultiPROBE II PLUSHT EX (Protocol 8-point HumanCRC96-well) in test media (30% Hams F12 (Gibco 11765-062), 70% DMEM (Gibco 11965-118), 1% PSA (Gibco-BRL 15420-062), 1% N2 (Gibco-BRL 17502-048), 20 ng/ml EGF (Sigma E9644), 10 ng/ml LIF (Chemicon LIF100), 20 ng/ml bFGF (R and D 233-FB) and 5 μg/ml heparin (Sigma H3149)).
Each plate contains controls containing test media (positive control) and test media without growth factors (negative control). Plates are incubated at 37° C. and 5% CO2 for a total of 7 days. At day 4, the cell plates are aspirated and fresh compound/media is added. After incubation, the wells are washed 1× with 0.1M Tris-Buffered Saline (TBS), and incubated at room temperature for 30 minutes with 100 μl/well of Fixing/Nuclear staining solution (8 μg/ml Hoechst 33342 and 3.7% Formaldehyde in 0.1M TBS). […]

## N[C@@H](Cc1c[nH]c2ccc(O)cc12)C(=O)O [5-HTP, 5-Hydroxy L tryptophan]
[1]
  concentration at which the agent by itself affected neuronal differentiation: ≥ 4 µM
  effect on differentiation along a neuronal lineage, agent by itself: increased differentiation of NSCs into neurons; also recorded: significantly enhanced neuronal differentiation

## Cc1onc(O)c1CC(N)C(=O)O (stereo not drawn) [AMPA, alpha-amino-3-hydroxy-5-methyl-4-isoxazolepropionic acid]
[1]
  effect on neuronal differentiation, AMPA combined with M6: significantly enhanced levels of neuronal differentiation
  concentration at which the agent by itself affected neuronal differentiation: about 30 μM
  effect on differentiation along a neuronal lineage, agent by itself: only a slight effect

## C[C@]12CC[C@H](O)CC1=CC[C@@H]1[C@@H]2CC[C@]2(C)C(=O)CC[C@@H]12 [DHEA]
[1]
  effect on differentiation along a neuronal lineage, agent by itself: promotes differentiation

## CC(N)Cc1ccccc1 (stereo not drawn) [amphetamine]
[1]; plus 10 μM dopamine, FIG. 2B, read-out: EC50, neuronal differentiation in combination with dopamine
  EC50: ~30 µM
[1]
  effect on differentiation along a neuronal lineage, agent by itself: did not have a significant effect
[1]; plus 10 μM dopamine
  effect on neuronal differentiation in combination with dopamine as constitutive factor: significantly enhanced neuronal differentiation

## O=C1CC2(CCCC2)CC(=O)N1CCCCN1CCN(c2ncccn2)CC1 [buspirone]
[2]
  effect on differentiation along an astrocyte lineage (astrogenesis), agent alone: promotes differentiation into both neurons and astrocytes
[1]
  effect on differentiation along a neuronal lineage, agent by itself: promotes differentiation into both neurons and astrocytes

## NCCc1ccc(O)c(O)c1 [dopamine]
[1]
  concentration at which the agent by itself affected neuronal differentiation: ≥ 1 µM
  effect on differentiation along a neuronal lineage, agent by itself: minor effect; also recorded: only a slight effect
[1]; listed as Dopamine
  effect on differentiation along a neuronal lineage, agent by itself: did not promote differentiation
[1]; plus 10 μM or 30 μM 5-HTP, FIG. 4B
  effect on neuronal differentiation in combination with 5-HTP as constitutive factor: concentration-dependent increase in NSC differentiation; also recorded: significantly enhanced neuronal differentiation
[3]; in the presence of 10 μM 5-HTP
  effect on NSC proliferation (mean cell intensity) with 10 μM 5-HTP: substantially enhanced
[3]; in the presence of 30 μM 5-HTP, particularly at higher test agent concentrations
  effect on NSC proliferation (mean cell intensity) with 30 μM 5-HTP: further enhanced
[3]; media-only background subtracted
  effect on NSC proliferation (mean cell intensity), test agent alone: small dose-dependent effect

## NCCc1c[nH]cn1 [histamine]
[4]
  cell proliferation / cell growth (cell number), trophic effect: promotes increased cell proliferation
[4]; listed as Histamine
  cell proliferation / cell growth (cell number), trophic effect: promoted cell growth in a concentration-dependent manner

## COc1ccc2[nH]cc(CCNC(C)=O)c2c1 [melatonin]
[2]; increasing melatonin added to buspirone concentration-response curve, FIG. 11 lower panel
  effect on astrocyte differentiation, buspirone with melatonin: repression of astrocytes
[2]
  effect on differentiation along an astrocyte lineage (astrogenesis), agent alone: no effect on astrogenesis
[1]; increasing melatonin added to buspirone concentration-response curve, FIG. 11 upper panel
  effect on neuronal differentiation, buspirone with melatonin: differentiation into neurons is preserved

## COC(=O)C(c1ccccc1)C1CCCCN1 (stereo not drawn) [methylphenidate]
[1]
  concentration at which the agent by itself affected neuronal differentiation: greater than 1 μM
  effect on differentiation along a neuronal lineage, agent by itself: only a slight effect
[1]; plus 10 μM dopamine
  effect on neuronal differentiation in combination with dopamine as constitutive factor: significantly enhanced the degree of neuronal differentiation

## CN1CC[C@]23c4c5ccc(O)c4O[C@H]2[C@@H](O)C=C[C@H]3[C@H]1C5 [morphine]
NSC monolayer culture; simultaneous exposure with DHEA
  effect on DHEA-driven normal NSC neuronal differentiation: inhibition of normal NSC differentiation

## O=C1CC[C@@]2(O)[C@H]3Cc4ccc(O)c5c4[C@@]2(CCN3CC2CC2)[C@H]1O5 [naltrexone]
NSC monolayer culture; cells exposed to both morphine and naltrexone, FIG. 10
  rescue of morphine-inhibited neuronal differentiation: rescue of neurogenesis; also recorded: rescues opioid-induced inhibition
[5]
  toxicity or proliferation (cell number dose-response): non-neurogenic (non-tropic) and non-toxic; also recorded: neither toxic nor trophic

## NC[C@H](O)c1ccc(O)c(O)c1 [norepinephrine]
[2]
  effect on differentiation along an astrocyte lineage (astrogenesis), agent alone: no effect
[1]; mean of two independent experiments, FIG. 3A, read-out: EC50, neuronal differentiation, agent by itself
  EC50: ~4 µM
[1]
  effect on differentiation along a neuronal lineage, agent by itself: significantly enhanced neuronal differentiation

## cyclo(Pro-Gly) [M6]
[1]
  effect on neuronal differentiation, AMPA combined with M6: potentiates AMPA activity
